Test results as given in ChEMBL document CHEMBL5291721, “A preclinical secondary pharmacology resource illuminates target-adverse drug reaction associations of marketed drugs” (Nat Commun, 2023).

How the values were obtained:
Cannabinoid receptor 1 [1] = molecular target: T1, Cannabinoid receptor 1 (Homo sapiens, UniProt P21554); type: functional, cell-based
[2] = molecular target: T2, 5-hydroxytryptamine receptor 3A (Homo sapiens, UniProt P46098); type: functional
T2 sequence (P46098 whole entry): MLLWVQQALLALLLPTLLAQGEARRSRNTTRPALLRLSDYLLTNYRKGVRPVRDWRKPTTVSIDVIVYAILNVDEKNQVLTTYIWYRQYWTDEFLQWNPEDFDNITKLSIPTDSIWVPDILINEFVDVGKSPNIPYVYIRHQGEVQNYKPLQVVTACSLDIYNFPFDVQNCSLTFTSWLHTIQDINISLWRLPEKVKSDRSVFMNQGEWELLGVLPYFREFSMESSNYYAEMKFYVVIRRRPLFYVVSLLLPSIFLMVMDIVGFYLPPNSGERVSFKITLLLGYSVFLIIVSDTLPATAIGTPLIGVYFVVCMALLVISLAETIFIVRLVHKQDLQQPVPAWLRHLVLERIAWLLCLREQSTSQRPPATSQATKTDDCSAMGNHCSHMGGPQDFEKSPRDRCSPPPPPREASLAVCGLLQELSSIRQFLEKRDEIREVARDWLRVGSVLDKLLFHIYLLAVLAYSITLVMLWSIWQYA

[3] = molecular target: T3, Alpha-2A adrenergic receptor (Homo sapiens, UniProt P08913); type: functional, cell-based
T3 sequence (P08913 whole entry): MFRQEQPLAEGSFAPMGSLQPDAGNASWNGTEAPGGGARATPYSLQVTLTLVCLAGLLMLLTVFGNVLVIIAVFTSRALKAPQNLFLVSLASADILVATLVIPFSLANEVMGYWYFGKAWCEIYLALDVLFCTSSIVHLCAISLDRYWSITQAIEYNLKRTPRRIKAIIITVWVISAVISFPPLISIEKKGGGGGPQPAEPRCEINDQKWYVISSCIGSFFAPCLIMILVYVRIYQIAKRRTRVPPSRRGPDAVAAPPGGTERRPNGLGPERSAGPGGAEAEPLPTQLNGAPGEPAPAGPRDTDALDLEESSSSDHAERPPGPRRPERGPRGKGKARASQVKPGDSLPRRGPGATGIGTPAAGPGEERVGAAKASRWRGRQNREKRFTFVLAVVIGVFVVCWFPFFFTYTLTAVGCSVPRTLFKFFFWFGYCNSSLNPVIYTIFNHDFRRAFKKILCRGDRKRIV

Histamine H2 receptor = Histamine H2 receptor (Homo sapiens, UniProt P25021); type: functional, cell-based
Sequence of Histamine H2 receptor (P25021 whole entry): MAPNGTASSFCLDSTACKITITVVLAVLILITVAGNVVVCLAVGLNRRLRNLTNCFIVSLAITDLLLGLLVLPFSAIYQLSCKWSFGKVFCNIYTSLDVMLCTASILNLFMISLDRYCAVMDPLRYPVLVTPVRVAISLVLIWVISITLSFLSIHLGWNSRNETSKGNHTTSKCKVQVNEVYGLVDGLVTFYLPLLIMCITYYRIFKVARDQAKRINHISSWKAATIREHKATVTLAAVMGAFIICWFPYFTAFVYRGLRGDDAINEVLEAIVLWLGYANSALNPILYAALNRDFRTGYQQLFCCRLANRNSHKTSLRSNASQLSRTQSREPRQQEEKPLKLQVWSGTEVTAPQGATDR

[4] = molecular target: Neuronal acetylcholine receptor subunit alpha-4 (Homo sapiens, UniProt P43681)
Sequence of Neuronal acetylcholine receptor subunit alpha-4 (P43681 whole entry): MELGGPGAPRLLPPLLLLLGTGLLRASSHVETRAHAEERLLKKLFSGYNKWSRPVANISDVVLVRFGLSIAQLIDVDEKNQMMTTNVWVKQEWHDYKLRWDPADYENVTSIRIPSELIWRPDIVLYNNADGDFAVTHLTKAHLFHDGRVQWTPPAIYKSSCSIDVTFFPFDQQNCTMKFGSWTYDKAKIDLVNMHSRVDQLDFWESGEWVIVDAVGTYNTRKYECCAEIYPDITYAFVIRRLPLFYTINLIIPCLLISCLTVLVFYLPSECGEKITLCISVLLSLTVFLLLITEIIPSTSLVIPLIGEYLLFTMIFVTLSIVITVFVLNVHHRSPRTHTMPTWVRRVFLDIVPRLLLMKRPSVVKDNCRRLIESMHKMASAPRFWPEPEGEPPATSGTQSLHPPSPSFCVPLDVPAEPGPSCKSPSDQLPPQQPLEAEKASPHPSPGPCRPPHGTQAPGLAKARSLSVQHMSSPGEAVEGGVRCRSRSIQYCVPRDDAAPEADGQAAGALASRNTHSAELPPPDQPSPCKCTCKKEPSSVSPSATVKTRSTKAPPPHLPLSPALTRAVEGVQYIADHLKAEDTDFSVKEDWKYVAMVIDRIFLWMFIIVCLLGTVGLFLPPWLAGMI

[5] = molecular target: 5-hydroxytryptamine receptor 2A (Homo sapiens, UniProt P28223); type: functional, cell-based
Sequence of 5-hydroxytryptamine receptor 2A (P28223 whole entry): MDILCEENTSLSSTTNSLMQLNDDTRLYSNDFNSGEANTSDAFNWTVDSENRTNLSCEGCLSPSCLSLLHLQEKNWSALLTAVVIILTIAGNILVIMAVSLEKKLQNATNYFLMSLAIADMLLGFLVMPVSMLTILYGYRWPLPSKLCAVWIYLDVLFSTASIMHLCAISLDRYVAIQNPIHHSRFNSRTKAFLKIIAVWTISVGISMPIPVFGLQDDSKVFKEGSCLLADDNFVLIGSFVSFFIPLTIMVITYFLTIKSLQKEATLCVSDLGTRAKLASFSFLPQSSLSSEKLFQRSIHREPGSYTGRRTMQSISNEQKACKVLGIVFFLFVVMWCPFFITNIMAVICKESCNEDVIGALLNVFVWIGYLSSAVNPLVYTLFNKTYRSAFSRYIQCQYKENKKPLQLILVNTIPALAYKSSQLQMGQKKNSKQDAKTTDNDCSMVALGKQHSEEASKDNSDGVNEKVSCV

[6] = molecular target: Growth hormone secretagogue receptor type 1 (Homo sapiens, UniProt Q92847)
Sequence of Growth hormone secretagogue receptor type 1 (Q92847 whole entry): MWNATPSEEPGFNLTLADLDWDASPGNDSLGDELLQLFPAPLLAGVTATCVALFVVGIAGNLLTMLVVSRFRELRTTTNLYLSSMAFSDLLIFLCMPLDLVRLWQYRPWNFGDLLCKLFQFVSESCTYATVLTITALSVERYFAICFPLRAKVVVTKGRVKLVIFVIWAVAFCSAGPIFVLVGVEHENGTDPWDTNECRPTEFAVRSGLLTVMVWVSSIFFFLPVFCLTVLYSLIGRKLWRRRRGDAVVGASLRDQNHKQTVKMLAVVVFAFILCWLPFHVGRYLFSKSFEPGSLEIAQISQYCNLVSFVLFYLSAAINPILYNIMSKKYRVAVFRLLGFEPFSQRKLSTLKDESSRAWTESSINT

[7] = molecular target: T4, Alpha-1A adrenergic receptor (Homo sapiens, UniProt P35348)
T4 sequence (P35348 whole entry): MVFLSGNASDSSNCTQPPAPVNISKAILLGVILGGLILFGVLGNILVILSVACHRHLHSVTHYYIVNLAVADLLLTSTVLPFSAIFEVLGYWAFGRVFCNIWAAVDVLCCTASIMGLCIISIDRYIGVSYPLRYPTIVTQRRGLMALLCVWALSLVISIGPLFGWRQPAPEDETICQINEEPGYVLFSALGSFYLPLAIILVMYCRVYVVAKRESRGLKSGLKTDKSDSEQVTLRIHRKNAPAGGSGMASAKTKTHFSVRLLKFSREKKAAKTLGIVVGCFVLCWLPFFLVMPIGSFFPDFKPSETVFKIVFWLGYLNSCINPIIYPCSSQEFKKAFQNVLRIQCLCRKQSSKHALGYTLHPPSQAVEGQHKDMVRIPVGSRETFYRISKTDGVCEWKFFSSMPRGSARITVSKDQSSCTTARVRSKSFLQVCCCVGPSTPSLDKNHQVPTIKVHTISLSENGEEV

[8] = molecular target: T5, Gastrin/cholecystokinin type B receptor (Homo sapiens, UniProt P32239)
T5 sequence (P32239 whole entry): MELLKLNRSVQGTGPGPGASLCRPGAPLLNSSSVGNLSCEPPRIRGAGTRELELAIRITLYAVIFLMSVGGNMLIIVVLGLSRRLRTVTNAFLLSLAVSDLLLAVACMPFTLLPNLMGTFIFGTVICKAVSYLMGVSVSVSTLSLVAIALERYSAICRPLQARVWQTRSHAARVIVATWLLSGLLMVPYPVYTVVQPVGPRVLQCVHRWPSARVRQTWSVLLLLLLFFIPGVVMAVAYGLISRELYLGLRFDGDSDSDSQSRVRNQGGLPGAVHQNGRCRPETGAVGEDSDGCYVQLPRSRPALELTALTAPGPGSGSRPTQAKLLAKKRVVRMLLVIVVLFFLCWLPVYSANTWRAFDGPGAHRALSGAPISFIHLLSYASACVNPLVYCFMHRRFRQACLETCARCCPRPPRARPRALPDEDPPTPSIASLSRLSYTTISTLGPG

[9] = molecular target: Delta-type opioid receptor (Homo sapiens, UniProt P41143)
Sequence of Delta-type opioid receptor (P41143 whole entry): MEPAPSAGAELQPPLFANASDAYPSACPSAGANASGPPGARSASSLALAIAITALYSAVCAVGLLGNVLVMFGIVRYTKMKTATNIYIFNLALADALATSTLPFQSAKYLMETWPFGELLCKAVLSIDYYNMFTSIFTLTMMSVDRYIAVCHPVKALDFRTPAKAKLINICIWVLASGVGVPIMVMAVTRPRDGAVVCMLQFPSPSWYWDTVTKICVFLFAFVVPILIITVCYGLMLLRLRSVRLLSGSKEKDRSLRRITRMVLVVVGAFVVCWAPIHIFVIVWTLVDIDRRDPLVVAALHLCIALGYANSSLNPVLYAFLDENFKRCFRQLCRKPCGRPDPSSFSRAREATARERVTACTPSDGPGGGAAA

[10] = molecular target: T6, Muscarinic acetylcholine receptor M2 (Homo sapiens, UniProt P08172); type: functional, cell-based
T6 sequence (P08172 whole entry): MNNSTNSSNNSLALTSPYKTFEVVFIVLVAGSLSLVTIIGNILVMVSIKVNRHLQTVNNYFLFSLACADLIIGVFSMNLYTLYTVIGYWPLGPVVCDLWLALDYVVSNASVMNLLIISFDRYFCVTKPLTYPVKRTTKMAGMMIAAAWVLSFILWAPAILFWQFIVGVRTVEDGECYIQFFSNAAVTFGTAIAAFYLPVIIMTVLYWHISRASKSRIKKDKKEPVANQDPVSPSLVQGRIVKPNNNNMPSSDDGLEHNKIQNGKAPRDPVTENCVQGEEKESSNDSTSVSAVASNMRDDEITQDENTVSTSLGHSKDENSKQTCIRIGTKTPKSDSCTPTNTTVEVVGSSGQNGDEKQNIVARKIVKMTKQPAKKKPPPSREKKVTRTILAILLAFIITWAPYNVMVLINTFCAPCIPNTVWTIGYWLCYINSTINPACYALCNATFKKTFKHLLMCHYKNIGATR

[11] = molecular target: Beta-2 adrenergic receptor (Homo sapiens, UniProt P07550)
Sequence of Beta-2 adrenergic receptor (P07550 whole entry): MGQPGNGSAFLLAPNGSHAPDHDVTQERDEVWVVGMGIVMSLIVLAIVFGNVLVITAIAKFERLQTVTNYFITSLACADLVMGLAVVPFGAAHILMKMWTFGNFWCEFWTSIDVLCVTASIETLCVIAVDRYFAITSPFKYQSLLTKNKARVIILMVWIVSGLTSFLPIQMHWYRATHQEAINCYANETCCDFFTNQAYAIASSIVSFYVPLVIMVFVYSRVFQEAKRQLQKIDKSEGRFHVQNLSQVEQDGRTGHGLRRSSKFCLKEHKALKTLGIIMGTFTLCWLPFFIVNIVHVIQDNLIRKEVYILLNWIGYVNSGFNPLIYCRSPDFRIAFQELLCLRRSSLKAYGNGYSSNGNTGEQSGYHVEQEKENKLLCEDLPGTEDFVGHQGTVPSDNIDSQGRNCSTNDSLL

[12] = molecular target: cGMP-inhibited 3',5'-cyclic phosphodiesterase 3A (Homo sapiens, UniProt Q14432); type: functional
Sequence of cGMP-inhibited 3',5'-cyclic phosphodiesterase 3A (Q14432 whole entry): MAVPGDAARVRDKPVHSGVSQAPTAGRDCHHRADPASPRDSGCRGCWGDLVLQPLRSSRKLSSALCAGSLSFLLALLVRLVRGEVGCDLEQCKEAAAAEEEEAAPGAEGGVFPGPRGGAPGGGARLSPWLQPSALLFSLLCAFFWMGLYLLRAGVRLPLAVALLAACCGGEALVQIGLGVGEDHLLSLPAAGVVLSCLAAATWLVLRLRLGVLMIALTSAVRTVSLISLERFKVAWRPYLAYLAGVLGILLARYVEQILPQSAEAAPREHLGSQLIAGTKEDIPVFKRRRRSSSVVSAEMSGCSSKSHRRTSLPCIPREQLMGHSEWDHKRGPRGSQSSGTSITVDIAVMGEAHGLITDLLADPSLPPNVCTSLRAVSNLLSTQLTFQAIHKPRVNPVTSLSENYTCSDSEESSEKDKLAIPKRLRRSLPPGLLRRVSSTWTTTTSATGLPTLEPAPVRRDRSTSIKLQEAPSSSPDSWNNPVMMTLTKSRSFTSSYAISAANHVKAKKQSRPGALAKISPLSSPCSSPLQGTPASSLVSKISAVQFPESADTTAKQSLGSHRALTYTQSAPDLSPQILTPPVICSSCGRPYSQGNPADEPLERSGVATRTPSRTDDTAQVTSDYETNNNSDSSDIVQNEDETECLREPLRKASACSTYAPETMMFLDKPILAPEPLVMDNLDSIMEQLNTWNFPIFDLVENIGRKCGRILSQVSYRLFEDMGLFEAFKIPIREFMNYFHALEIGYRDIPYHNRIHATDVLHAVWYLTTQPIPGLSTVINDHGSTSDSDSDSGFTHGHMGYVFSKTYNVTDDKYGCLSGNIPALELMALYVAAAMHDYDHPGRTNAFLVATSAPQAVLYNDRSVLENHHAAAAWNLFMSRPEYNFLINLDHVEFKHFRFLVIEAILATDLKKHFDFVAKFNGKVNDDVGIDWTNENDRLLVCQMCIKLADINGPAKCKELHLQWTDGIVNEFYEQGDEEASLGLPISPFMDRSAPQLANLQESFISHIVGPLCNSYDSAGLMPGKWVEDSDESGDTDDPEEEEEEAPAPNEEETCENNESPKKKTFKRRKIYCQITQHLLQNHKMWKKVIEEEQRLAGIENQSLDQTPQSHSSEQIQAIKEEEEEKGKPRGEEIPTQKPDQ

Cannabinoid receptor 1 [13] = molecular target: T1, Cannabinoid receptor 1; type: functional, cell-based; remark: listed apart in the source
Also: assay procedure not described here.

T1 sequence (P21554 whole entry): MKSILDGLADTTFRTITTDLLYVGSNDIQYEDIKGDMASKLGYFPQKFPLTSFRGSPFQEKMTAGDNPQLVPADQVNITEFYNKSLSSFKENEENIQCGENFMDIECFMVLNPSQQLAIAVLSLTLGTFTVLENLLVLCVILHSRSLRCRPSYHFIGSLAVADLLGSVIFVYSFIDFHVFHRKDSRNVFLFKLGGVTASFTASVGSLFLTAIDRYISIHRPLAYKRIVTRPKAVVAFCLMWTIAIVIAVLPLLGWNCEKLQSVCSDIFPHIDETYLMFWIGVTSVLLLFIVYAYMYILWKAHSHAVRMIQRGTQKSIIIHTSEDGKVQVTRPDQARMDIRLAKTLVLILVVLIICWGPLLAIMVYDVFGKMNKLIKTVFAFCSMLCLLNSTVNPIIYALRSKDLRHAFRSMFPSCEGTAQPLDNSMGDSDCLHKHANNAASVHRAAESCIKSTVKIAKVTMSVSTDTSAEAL

Row | Compound | AC50 (Cannabinoid receptor 1 [1]) | AC50 [2] | AC50 [3] | AC50 (Histamine H2 receptor) | AC50 [4] | AC50 [5] | AC50 [6] | AC50 [7] | AC50 [8] | AC50 [9] | AC50 [10] | AC50 [11] | AC50 [12] | AC50 (Cannabinoid receptor 1 [13])
1 | CCN(CC)CCCN(c1ccccc1)C1Cc2ccccc2C1 [APRINDINE] | > 30 µM | > 30 µM | > 30 µM | > 30 µM | > 30 µM | > 30 µM | 15 µM | 1.3 µM | > 30 µM | > 30 µM | > 30 µM | > 10 µM | > 30 µM | > 30 µM
2 | COc1ccc(C(Cl)=C(c2ccc(OC)cc2)c2ccc(OC)cc2)cc1 [CHLOROTRIANISENE] | > 30 µM | > 30 µM | > 30 µM | > 30 µM | > 30 µM | > 30 µM | > 30 µM | > 10 µM | > 30 µM | > 30 µM | > 30 µM | > 10 µM | > 30 µM | > 30 µM
3 | Oc1cc(O)c2c(c1)O[C@H](c1ccc(O)c(O)c1)[C@@H](O)C2 [CIANIDANOL] | > 30 µM | > 30 µM | > 10 µM | > 10 µM | > 10 µM | > 30 µM | > 30 µM | > 10 µM | > 30 µM | > 30 µM | > 10 µM | > 10 µM | > 30 µM | > 30 µM
4 | Nc1nc(Cl)nc2c1ncn2[C@@H]1O[C@H](CO)[C@@H](O)[C@@H]1F [CLOFARABINE] | – | > 30 µM | > 10 µM | > 30 µM | > 30 µM | > 30 µM | > 30 µM | 29 µM | > 30 µM | > 30 µM | > 10 µM | > 30 µM | 6.4 µM | –
5 | C=C(c1ccccc1OCc1cccc(Cl)c1)n1ccnc1 [CROCONAZOLE] | > 30 µM | > 30 µM | > 10 µM | > 10 µM | > 10 µM | > 30 µM | > 30 µM | 9.4 µM | > 30 µM | > 30 µM | > 10 µM | > 30 µM | > 30 µM | 15 µM
6 | COC(=O)[C@H]1[C@H]2C[C@@H]3c4[nH]c5ccccc5c4CCN3C[C@H]2C[C@@H](OC(=O)c2cc(OC)c(OC)c(OC)c2)[C@@H]1OC [DESERPIDINE] | – | > 30 µM | > 10 µM | > 10 µM | > 30 µM | > 10 µM | 24.6 µM | > 10 µM | > 30 µM | > 30 µM | > 10 µM | > 10 µM | > 30 µM | –
7 | Cc1ccc(-c2ncc(Cl)cc2-c2ccc(S(C)(=O)=O)cc2)cn1 [ETORICOXIB] | > 30 µM | > 10 µM | > 10 µM | > 10 µM | > 10 µM | > 30 µM | > 10 µM | > 10 µM | > 10 µM | > 10 µM | > 10 µM | > 10 µM | > 10 µM | > 30 µM
8 | COc1ccc2c3c1O[C@H]1C(=O)CC[C@H]4[C@@H](C2)N(C)CC[C@]314 [HYDROCODONE] | – | > 30 µM | > 10 µM | > 10 µM | > 10 µM | > 30 µM | > 30 µM | > 10 µM | > 30 µM | – | > 10 µM | > 10 µM | > 30 µM | –
9 | CCC(NC(C)C)C(O)c1ccc(O)c(O)c1 (stereo not given) [ISOETHARINE] | – | > 30 µM | > 30 µM | > 30 µM | > 30 µM | > 30 µM | > 30 µM | > 30 µM | > 30 µM | > 30 µM | > 30 µM | 5.43 µM | > 30 µM | –
10 | CC1NCCOC1c1ccccc1 (stereo not given) [PHENMETRAZINE] | > 30 µM | > 30 µM | > 10 µM | > 10 µM | > 10 µM | > 30 µM | > 30 µM | > 10 µM | > 30 µM | > 30 µM | > 10 µM | > 10 µM | > 30 µM | > 30 µM
11 | CC(C)(N)Cc1ccccc1 [PHENTERMINE] | > 30 µM | > 30 µM | > 10 µM | > 10 µM | > 10 µM | > 30 µM | > 30 µM | > 10 µM | > 30 µM | > 30 µM | > 10 µM | > 10 µM | > 30 µM | > 30 µM
12 | CC(C(=O)O)c1ccc(C(=O)c2ccccc2)s1 (stereo not given) [TIAPROFENIC ACID] | > 30 µM | > 30 µM | > 10 µM | > 10 µM | > 10 µM | > 30 µM | > 10 µM | 10 µM | – | > 30 µM | > 10 µM | > 10 µM | > 30 µM | > 30 µM
13 | OCC(CO)N[C@H]1C[C@](O)(CO)[C@@H](O)[C@H](O)[C@H]1O [VOGLIBOSE] | – | > 30 µM | > 30 µM | > 30 µM | > 30 µM | > 30 µM | > 30 µM | > 30 µM | > 30 µM | > 30 µM | > 30 µM | > 30 µM | > 30 µM | –
